From PMC4201977 (Journal of immunology (Baltimore, Md. : 1950), 2014)
Ends that are not written are not given here.

Assays:
[1] = Cytosolic stability of optimal epitopes in iDC extracts; type: in vitro ADME; settings: human, iDC cytosolic extract, pH 7.4
[2] = Cytosolic stability of optimal epitopes in iMP extracts; type: in vitro ADME; settings: human, iMP cytosolic extract, pH 7.4
monocyte-derived DCs = experiment: Proteolytic activities in live DCs upon TLR ligand maturation; type: cell-based, human
[3] = 24h post stimulation, maturing over immature cells, n=2 donors

| Compound | half-life [1] | half-life [2] | change of aminopeptidases hydrolytic activities in maturing DCs (monocyte-derived DCs; 5h, 24h, 48h post stimulation) | change of chymotryptic activities in maturing DCs (monocyte-derived DCs; 5h, 24h, 48h post stimulation) | decrease of proteasomal caspase-like activity in maturing DCs (monocyte-derived DCs; [3]) | decrease of proteasomal tryptic activity in maturing DCs (monocyte-derived DCs; [3]) |
| --- | --- | --- | --- | --- | --- | --- |
| ISPRTLNAW [ISW9] | 7 min | 9.4 min | – | – | – | – |
| CCOCc1nc2c([nH]1)c(N)nc1ccccc12 [CL097] | – | – | unchanged | not affected | 30% | 30% |
| CC[C@H](C)[C@H](NC(=O)[C@@H](NC(=O)[C@H](CCC(=O)O)NC(=O)[C@@H]1CCCN1C(=O)[C@H](CO)NC(=O)[C@H](Cc1ccccc1)NC(=O)[C@H](C)NC(=O)[C@@H](N)CCCCN)C(C)C)C(=O)N1CCC[C@H]1C(=O)N[C@@H](CCSC)C(=O)N[C@@H](Cc1ccccc1)C(=O)O [KF11] | 22.1 min | 20.4 min | – | – | – | – |
